± gives the standard deviation of the averaged measurements.
Key:
[1] = compound: CNCc1ccc(-c2[nH]c3cc(F)cc4c3c2CCNC4=O)cc1; assay: surviving fraction relative to DMSO-only wells; higher = less growth inhibition; details: exposure time: 5 days
How it was run: (§1)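 Inhibitors were tested at 0.5, 1, 5, 10, 50, 100, 500 and 1000 nM, applied continuously for five days beginning 24 hours after log-phase tumour cells were seeded at 250–500 per well in 384-well plates. CellTiter-Glo luminescence served as the viability measure, expressed as surviving fraction against the median of DMSO-only wells. Each line, screened three times, was kept only with replicate Pearson r >0.7 and median Z' >0.3.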

[2] = compound: C[C@@H](Oc1cc(-c2cnn(C3CCNCC3)c2)cnc1N)c1c(Cl)ccc(F)c1Cl; assay: as above; details: exposure time: 5 days
How it was run: as §1

| Test System | surviving fraction ([1]; 0.5 nM) | surviving fraction ([1]; 1 nM) | surviving fraction ([1]; 5 nM) | surviving fraction ([1]; 10 nM) | surviving fraction ([1]; 50 nM) | surviving fraction ([1]; 100 nM) | surviving fraction ([1]; 500 nM) | surviving fraction ([1]; 1000 nM) | surviving fraction ([2]; 0.5 nM) | surviving fraction ([2]; 1 nM) | surviving fraction ([2]; 10 nM) | surviving fraction ([2]; 100 nM) | surviving fraction ([2]; 500 nM) | surviving fraction ([2]; 1000 nM) | surviving fraction ([2]; 5 nM) | surviving fraction ([2]; 50 nM) |
| --- | --- | --- | --- | --- | --- | --- | --- | --- | --- | --- | --- | --- | --- | --- | --- | --- |
| S68 BREAST | 1.19 ± 0.22 | 0.82 ± 0.23 | 0.959 ± 0.1 | 0.996 ± 0.26 | 0.676 ± 0.18 | 0.696 ± 0.17 | 0.691 ± 0.15 | 0.425 ± 0.11 | 0.733 ± 0.09 | 0.819 ± 0.31 | 0.838 ± 0.19 | 0.847 ± 0.16 | 0.567 ± 0.19 | 0.398 ± 0.084 |  |  |
| CHLA90 AUTONOMIC GANGLIA | 0.97 ± 0.049 | 1.01 ± 0.068 | 0.961 ± 0.039 | 0.987 ± 0.043 | 0.993 ± 0.095 | 1.03 ± 0.023 | 1.01 ± 0.038 | 1.03 ± 0.033 | 0.996 ± 0.039 |  |  | 0.785 ± 0.019 | 0.479 ± 0.029 | 0.328 ± 0.023 | 0.855 ± 0.042 | 0.812 ± 0.037 |
| CASKI CERVIX | 0.893 ± 0.022 | 0.968 ± 0.014 | 0.992 ± 0.015 | 0.939 ± 0.024 | 0.89 ± 0.03 | 0.898 ± 0.077 | 0.923 ± 0.12 | 0.848 ± 0.034 | 0.829 ± 0.056 | 0.782 ± 0.081 |  | 0.88 ± 0.014 | 0.308 ± 0.018 | 0.303 ± 0.036 | 0.816 ± 0.011 | 0.925 ± 0.022 |
| HT1080 SOFT TISSUE | 1.04 ± 0.019 | 1.01 ± 0.014 | 0.983 ± 0.04 | 0.968 ± 0.018 | 0.899 ± 0.018 | 0.869 ± 0.037 | 0.818 ± 0.047 | 0.671 ± 0.068 | 1 ± 0.018 |  | 0.991 ± 0.059 |  | 0.953 ± 0.036 | 0.638 ± 0.047 | 1.02 ± 0.011 |  |
| KPD BONE | 0.975 ± 0.058 | 0.983 ± 0.022 | 1.13 ± 0.15 | 1.05 ± 0.028 | 0.956 ± 0.032 | 0.95 ± 0.022 | 0.876 ± 0.022 | 0.732 ± 0.046 | 0.886 ± 0.043 | 0.87 ± 0.013 |  |  | 0.518 ± 0.011 | 0.156 ± 0.012 | 0.974 ± 0.039 | 0.987 ± 0.083 |
| HCC1954 BREAST | 0.795 ± 0.12 | 0.797 ± 0.11 | 0.947 ± 0.039 | 1.04 ± 0.17 | 0.61 ± 0.082 | 0.549 ± 0.019 | 0.557 ± 0.0088 | 0.464 ± 0.012 | 0.364 ± 0.042 | 0.353 ± 0.084 | 0.401 ± 0.021 | 0.473 ± 0.036 | 0.443 ± 0.11 | 0.4677 ± 0.0032 | 0.426 ± 0.06 | 0.472 ± 0.019 |
| MDAMB468 BREAST | 0.941 ± 0.048 | 0.89 ± 0.085 | 0.917 ± 0.034 | 0.929 ± 0.056 | 0.8 ± 0.047 | 0.746 ± 0.065 | 0.761 ± 0.048 | 0.609 ± 0.12 | 0.845 ± 0.076 |  | 0.9157 ± 0.004 | 1.05 ± 0.041 | 0.551 ± 0.081 | 0.234 ± 0.019 |  | 0.972 ± 0.066 |
| SNU475 LIVER | 0.999 ± 0.052 | 0.982 ± 0.039 | 0.992 ± 0.065 | 0.99 ± 0.026 | 0.919 ± 0.027 | 0.916 ± 0.028 | 0.863 ± 0.053 | 0.892 ± 0.043 | 0.8177 ± 0.0046 |  |  |  | 0.853 ± 0.031 | 0.662 ± 0.04 | 0.829 ± 0.049 | 0.927 ± 0.039 |
| VCAP PROSTATE | 1.01 ± 0.11 | 1.04 ± 0.14 | 1.06 ± 0.21 | 1.04 ± 0.052 | 0.921 ± 0.12 | 1.02 ± 0.07 | 0.881 ± 0.15 | 0.908 ± 0.092 |  | 0.919 ± 0.097 | 1.01 ± 0.031 | 0.897 ± 0.061 | 0.429 ± 0.027 | 0.143 ± 0.0055 | 1.02 ± 0.091 | 1.08 ± 0.055 |
| NOS1 BONE | 1.01 ± 0.042 | 1.08 ± 0.23 | 1.06 ± 0.13 | 0.919 ± 0.11 | 0.795 ± 0.1 | 0.798 ± 0.11 | 0.632 ± 0.049 | 0.602 ± 0.036 | 0.889 ± 0.05 | 0.856 ± 0.046 | 0.929 ± 0.1 | 0.988 ± 0.04 | 0.742 ± 0.055 | 0.401 ± 0.026 |  | 1.17 ± 0.06 |
| H23 LUNG | 1.05 ± 0.061 | 1.07 ± 0.066 | 1.05 ± 0.025 | 1.1 ± 0.011 | 1.16 ± 0.076 | 1.11 ± 0.043 | 1.14 ± 0.035 | 1.12 ± 0.021 | 0.9503 ± 0.0081 |  |  | 0.993 ± 0.023 | 0.926 ± 0.049 | 0.688 ± 0.019 | 0.963 ± 0.034 | 0.9953 ± 0.0047 |
| SUM44 BREAST | 0.927 ± 0.097 | 0.981 ± 0.098 | 1.01 ± 0.14 | 1.02 ± 0.11 | 0.841 ± 0.088 | 0.911 ± 0.027 | 0.892 ± 0.061 | 0.896 ± 0.042 | 0.865 ± 0.038 | 0.874 ± 0.056 | 0.935 ± 0.029 | 1.04 ± 0.026 | 0.892 ± 0.077 | 0.798 ± 0.046 | 0.983 ± 0.021 |  |
| HCT15 LARGE INTESTINE | 1.03 ± 0.075 | 1.01 ± 0.16 | 1.05 ± 0.13 | 1.05 ± 0.051 | 0.982 ± 0.1 | 0.988 ± 0.093 | 0.996 ± 0.095 | 1.03 ± 0.13 | 0.88 ± 0.058 | 0.88 ± 0.054 |  |  | 0.889 ± 0.042 | 0.165 ± 0.0046 | 0.895 ± 0.03 | 0.959 ± 0.024 |
| HU09 BONE | 1.04 ± 0.068 | 0.977 ± 0.052 | 1.04 ± 0.072 | 0.991 ± 0.066 | 0.965 ± 0.24 | 0.889 ± 0.13 | 0.757 ± 0.051 | 0.669 ± 0.074 |  | 0.889 ± 0.033 | 0.95 ± 0.07 | 0.841 ± 0.014 | 0.388 ± 0.053 | 0.197 ± 0.018 |  |  |
| SUM149 BREAST | 0.887 ± 0.032 | 0.997 ± 0.037 | 0.778 ± 0.039 | 0.779 ± 0.1 | 0.673 ± 0.067 | 0.665 ± 0.088 | 0.497 ± 0.033 | 0.494 ± 0.014 | 0.897 ± 0.12 | 0.877 ± 0.094 | 0.86 ± 0.045 | 0.893 ± 0.1 | 0.73 ± 0.064 | 0.415 ± 0.029 |  |  |
| A549 LUNG | 1.1 ± 0.039 | 1.07 ± 0.03 | 1.057 ± 0.0071 | 1.06 ± 0.029 | 1.14 ± 0.066 | 1.05 ± 0.06 | 1.08 ± 0.027 | 1.08 ± 0.034 |  | 0.942 ± 0.01 | 0.909 ± 0.0099 | 1.04 ± 0.064 | 1.009 ± 0.0093 | 0.552 ± 0.031 |  | 1.01 ± 0.014 |
| LM7 BONE | 0.912 ± 0.043 | 0.965 ± 0.015 | 0.986 ± 0.06 | 1.01 ± 0.016 | 0.752 ± 0.042 | 0.679 ± 0.1 | 0.497 ± 0.013 | 0.451 ± 0.0082 | 0.745 ± 0.03 | 0.765 ± 0.027 | 0.782 ± 0.075 | 0.859 ± 0.081 | 0.366 ± 0.031 | 0.168 ± 0.0087 | 0.779 ± 0.026 |  |
| HCC1395 BREAST | 0.901 ± 0.016 | 0.981 ± 0.02 | 1.09 ± 0.011 | 0.92 ± 0.058 | 0.873 ± 0.12 | 0.828 ± 0.071 | 0.736 ± 0.041 | 0.809 ± 0.028 | 0.831 ± 0.14 | 0.74 ± 0.087 | 0.838 ± 0.097 | 1 ± 0.065 |  | 1 ± 0.089 | 0.814 ± 0.074 | 1.01 ± 0.11 |
| SG31 HEADNECK | 1.31 ± 0.25 | 1.14 ± 0.13 | 1.11 ± 0.15 | 1.12 ± 0.092 | 0.922 ± 0.12 | 0.845 ± 0.061 | 0.929 ± 0.12 | 0.947 ± 0.09 |  | 0.821 ± 0.04 | 0.843 ± 0.18 | 0.845 ± 0.088 | 0.755 ± 0.061 | 0.485 ± 0.07 | 0.821 ± 0.059 | 0.847 ± 0.063 |
| SKBR3 BREAST | 0.907 ± 0.11 | 0.895 ± 0.12 | 0.9 ± 0.14 | 0.841 ± 0.11 | 0.703 ± 0.1 | 0.813 ± 0.052 | 0.733 ± 0.14 | 0.734 ± 0.026 | 0.731 ± 0.039 | 0.814 ± 0.075 | 0.859 ± 0.071 |  | 0.759 ± 0.035 |  |  | 0.997 ± 0.12 |
| MDAMB361 BREAST | 0.709 ± 0.074 | 0.752 ± 0.04 | 0.672 ± 0.041 | 0.69 ± 0.0053 | 0.543 ± 0.065 | 0.615 ± 0.082 | 0.553 ± 0.09 | 0.589 ± 0.063 | 0.779 ± 0.017 | 0.768 ± 0.029 |  | 0.858 ± 0.026 | 1.04 ± 0.053 | 1.02 ± 0.047 | 0.807 ± 0.043 |  |
| ASKA SYNOVIAL | 1.1 ± 0.024 | 1.04 ± 0.072 | 1.04 ± 0.07 | 0.987 ± 0.017 | 0.887 ± 0.053 | 0.72 ± 0.019 | 0.653 ± 0.1 | 0.585 ± 0.057 | 0.873 ± 0.092 | 0.773 ± 0.061 | 0.69 ± 0.044 | 0.415 ± 0.021 | 0.246 ± 0.014 | 0.249 ± 0.014 | 0.78 ± 0.035 | 0.527 ± 0.028 |
| SG28 HEADNECK | 1.09 ± 0.1 | 0.995 ± 0.011 | 0.953 ± 0.012 | 1 ± 0.073 | 0.763 ± 0.056 | 0.723 ± 0.046 | 0.798 ± 0.086 | 0.76 ± 0.12 |  | 0.918 ± 0.053 |  | 1.07 ± 0.098 |  | 0.764 ± 0.12 | 0.85 ± 0.067 | 1 ± 0.042 |
